For data set [1], the system named is Mycobacterium tuberculosis. Kind of data set: Antimycobacterial activity against Mycobacterium tuberculosis H37Rv assessed as inhibition of bacterial growth measured by Resazurin microtitre assay. It counts as functional. For orientation: Resazurin is reduced to fluorescent resorufin, in cell work by metabolically active cells.
The subject of data set [2] is Mycobacterium tuberculosis. Kind of data set: Antimycobacterial activity against Mycobacterium tuberculosis H37Rv assessed as inhibition of bacterial growth at 100 ug/ml measured after 24 hrs relative to control. It counts as functional.
Data set [3] relates to Mycobacterium tuberculosis. The data set can be described thus: Antimycobacterial activity against Mycobacterium tuberculosis H37Rv assessed as inhibition of bacterial growth at 100 ug/ml measured after 3 days relative to control. It counts as functional. The following applies: 72 h, time 3 day.
Data set [4] has as its system Mycobacterium tuberculosis. The data set can be described thus: Antimycobacterial activity against Mycobacterium tuberculosis H37Rv assessed as inhibition of bacterial growth at 100 ug/ml measured after 9 days relative to control. The data set is classed as functional. The following applies: 216 h, time 9 day.
The subject of data set [5] is Mycobacterium tuberculosis. The data set can be described thus: Antimycobacterial activity against Mycobacterium tuberculosis H37Rv under starvation condition assessed as inhibition of bacterial growth at 6.25 ug/ml measured after 9 days relative to control. It counts as functional. The note with it: 216 h, time 9 day.
The test system of data set [6] is Mycobacterium tuberculosis. The data set can be described thus: Antimycobacterial activity against Mycobacterium tuberculosis H37Rv under starvation condition assessed as inhibition of bacterial growth at 25 ug/ml measured after 3 days relative to control. The following applies: 72 h, time 3 day. It counts as functional.
Data set [7] relates to Mycobacterium tuberculosis. Kind of data set: Antimycobacterial activity against Mycobacterium tuberculosis H37Rv under starvation condition assessed as inhibition of bacterial growth at 25 ug/ml measured after 9 days relative to control. The note with it: 216 h, time 9 day. The data set is classed as functional.
Data set [8] has as its system Mycobacterium tuberculosis. Kind of data set: Antimycobacterial activity against Mycobacterium tuberculosis H37Rv under starvation condition assessed as inhibition of bacterial growth at 100 ug/ml measured after 1 day relative to control. The data set is classed as functional. The following applies: 24 h.
Data set [9] concerns Mycobacterium tuberculosis. Kind of data set: Antimycobacterial activity against Mycobacterium tuberculosis H37Rv under starvation condition assessed as inhibition of bacterial growth at 100 ug/ml measured after 3 days relative to control. The data set is classed as functional. The note with it: 72 h, time 3 day.
The test system of data set [10] is Mycobacterium tuberculosis. Kind of data set: Antimycobacterial activity against Mycobacterium tuberculosis H37Rv under starvation condition assessed as inhibition of bacterial growth at 100 ug/ml measured after 9 days relative to control. It counts as functional. The note with it: 216 h, time 9 day.
The subject of data set [11] is Vero. The data set can be described thus: Cytotoxicity against African green monkey Vero cells assessed as cell viability measured after 24 hrs. The data set is classed as cell-based. The following applies: Chlorocebus sabaeus.
Data set [12] can be described thus: Cytotoxicity against African green monkey Vero cells assessed as cell viability at 100 ug/ml measured after 24 hrs relative to control. The data set is classed as cell-based. The note with it: chlorocebus sabaeus, at 100 µg/mL, read-out: Activity.
A short description of data set [13]: Selectivity index, ratio of IC50 for African green monkey Vero cells to MIC for antimycobacterial activity against Mycobacterium tuberculosis FURG-2. The data set is classed as toxicity. The following applies: read-out: Selectivity Index.
The test system of data set [14] is Mycobacterium tuberculosis. The data set can be described thus: Antimycobacterial activity against Mycobacterium tuberculosis H37Rv under starvation condition assessed as inhibition of bacterial growth at 25 ug/ml measured after 1 day relative to control. The note with it: 24 h. The data set is classed as functional.
The subject of data set [15] is Mycobacterium tuberculosis. The data set can be described thus: Antimycobacterial activity against Mycobacterium tuberculosis H37Rv under starvation condition assessed as inhibition of bacterial growth at 6.25 ug/ml measured after 1 day relative to control. It counts as functional. The note with it: 24 h.
The subject of data set [16] is Mycobacterium tuberculosis. The data set can be described thus: Antimycobacterial activity against Mycobacterium tuberculosis H37Rv under starvation condition assessed as inhibition of bacterial growth at 6.25 ug/ml measured after 3 days relative to control. The following applies: 72 h, time 3 day. The data set is classed as functional.

≈ marks a conversion by molar mass, not a printed value. Some results are limits rather than exact numbers.

A word on the MIC: it is the lowest concentration found to suppress growth. As usually defined, the inhibition is how much of the control response was suppressed. One may read the IC50 as the concentration at which inhibition is half-maximal.

For `O=C(C1=CN(CCc2ccccc2)C(NCCc2ccccc2)CC1)C(F)(F)F` (configuration not stated), the MIC in [1] was found to be 25 mg/L (≈ 62.1 µM). Further, the inhibition at 100 µg/mL in data set [2] worked out at 89.5%; in data set [3], 99.9%; in data set [4] it was 100%; in data set [8] it was 97.5%; in data set [9], 99.9%; in data set [10], 100%. Further, the results for the inhibition at 6.25 µg/mL in [5], in data set [15] and in data set [16] were 100%, 0% and 0%, respectively. Besides, the values for the inhibition at 25 µg/mL in data set [6], in data set [7] and in [14] were 99.5%, 100% and 0%, respectively. For the same molecule, in [11], the IC50 came to 140 mg/L (≈ 347 µM). Moreover, in [12], the viability at 24 h, 100 ug/ml was found to be 80%. In [13], the selectivity ratio was more than 10.
On to `CO[C@H]1/C=C/O[C@@]2(C)Oc3c(C)c(O)c4c(O)c(c(/C=N/N5CCN(C)CC5)c(O)c4c3C2=O)NC(=O)/C(C)=C\C=C\[C@H](C)[C@H](O)[C@@H](C)[C@@H](O)[C@@H](C)[C@H](OC(C)=O)[C@@H]1C` [RIFAMPIN], for which the minimum inhibitory concentration (MIC) in data set [1] worked out at 256 mg/L (≈ 311 µM).

The values are drawn from ChEMBL document CHEMBL4834440, “2,2,2-trifluoro-1-(1,4,5,6-tetrahydropyridin-3-yl)ethanone derivative as efflux pump inhibitor in Mycobacterium tuberculosis” (Bioorg Med Chem Lett, 2021).
